Reference: ChEMBL document CHEMBL5506059, “Cyanomethylquinolones as a New Class of Potential Multitargeting Broad-Spectrum Antibacterial Agents” (J Med Chem, 2024)
≈ marks a conversion by molar mass, not a printed value. Calls of active or inactive are those of the source. The rule behind the calls is not given here.

How the values were obtained:
[1] = tested on: Enterococcus faecalis; assay: Potency index, ratio of ciprofloxacin MIC to test compound MIC for antibacterial activity against vancomycin-resistant Enterococcus faecalis clinical isolate p1-2007225053 assessed as inhibition of bacterial growth incubated for 24 hrs; assay type: functional
[2] = tested on: Pseudomonas aeruginosa; assay: Antibacterial activity against Pseudomonas aeruginosa assessed as reduction in metabolic activity by measuring reduction in fluorescence intensity at 0.5 to 2 times MIC incubated for 6 hrs by alamar blue assay; assay type: functional, organism-based
[3] = tested on: Escherichia coli; assay: Antibacterial activity against Escherichia coli clinical isolate assessed as inhibition of bacterial growth incubated for 24 hrs; assay type: functional
[4] = tested on: Staphylococcus aureus; assay: Antibacterial activity against methicillin resistant Staphylococcus aureus assessed as reduction in metabolic activity by measuring reduction in fluorescence intensity at 0.5 to 2 times MIC incubated for 6 hrs by alamar blue assay; assay type: functional, organism-based
[5] = tested on: Staphylococcus aureus; assay: Antibacterial activity against Staphylococcus aureus ATCC 25923 assessed as inhibition of bacterial growth incubated for 24 hrs; assay type: functional
[6] = tested on: Escherichia coli; assay: Antibacterial activity against Escherichia coli ATCC 25922 assessed as inhibition of bacterial growth incubated for 24 hrs; assay type: functional
[7] = tested on: Staphylococcus aureus; assay: Antibacterial activity against methicillin resistant Staphylococcus aureus infected in female ICR mouse assessed as log reduction in bacterial load at 10 mg/kg pre-infected with bacteria for 24 hrs followed by compound administration on wound site every 6 hrs for 2 times and measured 36 hrs post infection; assay type: functional; settings: time 12 hrs
[8] = tested on: Staphylococcus aureus; assay: Antibiofilm activity in methicillin resistant Staphylococcus aureus assessed as biofilm eradication measured after 24 hrs by crystal violet staining based analysis; assay type: functional, organism-based; settings: dose 1-2 µg/ml
[9] = tested on: Staphylococcus aureus; assay: Antibacterial activity against methicillin-resistant Staphylococcus aureus ATCC 43300 assessed as inhibition of bacterial growth incubated for 24 hrs; assay type: functional
[10] = tested on: Pseudomonas aeruginosa; assay: Potency index, ratio of ciprofloxacin MIC to test compound MIC for antibacterial activity against Pseudomonas aeruginosa clinical isolate assessed as inhibition of bacterial growth incubated for 24 hrs; assay type: functional
[11] = tested on: Pseudomonas aeruginosa; assay: Antibiofilm activity in Pseudomonas aeruginosa assessed as biofilm eradication measured after 24 hrs by crystal violet staining based analysis; assay type: functional, organism-based; settings: dose 1-2 µg/ml
[12] = tested on: Enterococcus faecalis; assay: Antibacterial activity against Enterococcus faecalis clinical isolate assessed as inhibition of bacterial growth incubated for 24 hrs; assay type: functional
[13] = tested on: Staphylococcus aureus; assay: Antibacterial activity against Staphylococcus aureus CMCC(B)26003 assessed as inhibition of bacterial growth incubated for 24 hrs; assay type: functional
[14] = tested on: Pseudomonas aeruginosa; assay: Potency index, ratio of clinafloxacin MIC to test compound MIC for antibacterial activity against Pseudomonas aeruginosa clinical isolate assessed as inhibition of bacterial growth incubated for 24 hrs; assay type: functional
[15] = tested on: Cell membrane; assay: Induction of cell membrane depolarization in Pseudomonas aeruginosa assessed as increase in fluorescence intensity at 1 ug/ml measured for 30 mins by DiSC35 dye based fluorescence analysis; assay type: cell membranes; settings: dose 1.0 µg/ml
[16] = tested on: HUVEC; assay: Cytotoxicity against HUVEC cells assessed as reduction in cell viability at 0.78 to 25 ug/ml measured after 24 hrs by MTT assay; assay type: toxicity, cell-based; settings: human, dose 0.78-25 µg/ml
[17] = tested on: Cell membrane; assay: Induction of cell membrane permeability in Pseudomonas aeruginosa assessed as increase in fluorescence intensity at 1 to 2 ug/ml incubated for 6 hrs by PI staining based fluorescence analysis; assay type: cell membranes; settings: dose 1-2 µg/ml
[18] = tested on: Enterococcus faecium; assay: Antibacterial activity against Enterococcus faecium ATCC 19434 assessed as inhibition of bacterial growth incubated for 24 hrs; assay type: functional
[19] = tested on: Staphylococcus aureus; assay: Antibacterial activity against Staphylococcus aureus ATCC 12600 assessed as inhibition of bacterial growth incubated for 24 hrs; assay type: functional
[20] = tested on: Staphylococcus aureus; assay: Potency index, ratio of ciprofloxacin MIC to test compound MIC for antibacterial activity against Staphylococcus aureus clinical isolate assessed as inhibition of bacterial growth incubated for 24 hrs; assay type: functional

N#CCc1cc2c(cc1F)c(=O)c(C(=O)O)cn2C1CC1
Ratio [1]: 2
Activity [2]: Active
MIC [3]: 2 µg/mL (≈ 6.99 µM)
Activity [4]: Active
MIC [5]: 4 µg/mL (≈ 14 µM)
MIC [6]: 0.5 µg/mL (≈ 1.75 µM)
log(activity) [7]: ~2.5
Activity [8]: Dose-Dependent Effect
MIC [9]: 0.5 µg/mL (≈ 1.75 µM)
Ratio [10]: 8
Activity [11]: Dose-Dependent Effect
MIC [12]: 4 µg/mL (≈ 14 µM)
MIC [13]: 0.125 µg/mL (≈ 0.437 µM)
Ratio [14]: 2
Activity [15]: Active
Activity [16]: Non-Toxic
Activity [17]: Active
MIC [18]: 2 µg/mL (≈ 6.99 µM)
MIC [19]: 1 µg/mL (≈ 3.49 µM)
Ratio [20]: 8
